Reference: patent publication US12077503B2, “Substituted cyclic amides and their use as herbicides” (FMC CORPORATION, priority 2015, dated 2024)

Assays:
Type in all cases: in vivo
[1] = test system: poinsettia, wild (wild poinsettia, Euphorbia heterophylla); experiment: Test E preemergence; settings: scale 0 to 100
Procedure, shortened: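 Preemergence to seeds in silt loam, or postemergence to 1- to 4-leaf plants in peat-based potting mix; compound formulated in non-phytotoxic solvent plus surfactant. Greenhouse, 14–21 d. Visual injury vs. controls, 0 = no effect, 100 = complete control.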

[2] = test system: giant foxtail (Setaria faberi); experiment: Test G Pre-Emergence Protocol; settings: Setaria faberi, pre-emergence, 312 h, evaluated after 13 days; for pest or weed control at 15.625 g/ha: 15.625 g ai/ha; for pest or weed control at 15.625 g/ha / pest or weed control at 250 g/ha: read-out: Foxtail, Giant damage rating (100=total damage to plant; 0=no damage to plant); for pest or weed control at 62.5 g/ha: 62.5 g ai/ha, 100=total damage to plant, 0=no damage to plant, read-out: plant damage rating, Foxtail, Giant; for pest or weed control at 250 g/ha: 250 g ai/ha
Experimental: (§1) Seeds of corn (Zea mays), giant foxtail (Setaria faberi), barnyardgrass (Echinochloa crus-galli), ivy-leaved morning glory (Ipomoea hederacea), redroot pigweed (Amaranthus retroflexus) and velvetleaf (Abutilon theophrasti) were sown in standard soil in pots. After cultivation for one day under controlled conditions in a glasshouse (at 24/16° C., day/night; 14 hours light; 65% humidity), the plants were sprayed with an aqueous spray solution derived from the formulation of the technical active ingredient in acetone/water (50:50) solution containing 0.5% Tween 20 (polyoxyethylene sorbitan monolaurate, CAS RN 9005-64-5) to give a final dose of 15.625, 62.5 or 250 g/ha of test compound.
(§2) The test plants were then grown on under controlled conditions in a glasshouse (at 24/16° C., day/night; 14 hours light; 65% humidity) and watered twice daily. After 13 days the test was evaluated (100=total damage to plant; 0=no damage to plant). A dash (-) means no test result.

[3] = test system: redroot pigweed (Amaranthus retroflexus); experiment: Test G Pre-Emergence Protocol; settings: Amaranthus retroflexus, pre-emergence, 312 h, evaluated after 13 days; for pest or weed control at 15.625 g/ha: 15.625 g ai/ha; for pest or weed control at 15.625 g/ha / pest or weed control at 250 g/ha: read-out: Pigweed, Redroot damage rating (100=total damage to plant; 0=no damage to plant); for pest or weed control at 62.5 g/ha: 62.5 g ai/ha, 100=total damage to plant, 0=no damage to plant, read-out: plant damage rating, Pigweed, Redroot; for pest or weed control at 250 g/ha: 250 g ai/ha
Experimental: as §1, §2

corn (Zea mays) [4] = experiment: Test G Pre-Emergence Protocol; settings: Zea mays, pre-emergence, 312 h, evaluated after 13 days; for plant injury at 15.625 g/ha: 15.625 g ai/ha; for plant injury at 15.625 g/ha / plant injury at 250 g/ha: read-out: Corn damage rating (100=total damage to plant; 0=no damage to plant); for plant injury at 62.5 g/ha: 62.5 g ai/ha, 100=total damage to plant, 0=no damage to plant, read-out: plant damage rating, Corn; for plant injury at 250 g/ha: 250 g ai/ha
Experimental: as §1, §2

[5] = test system: giant foxtail (Setaria faberi); experiment: Test G Post-Emergence Protocol; settings: Setaria faberi, post-emergence, 312 h; for pest or weed control at 15.625 g/ha: 15.625 g ai/ha, evaluated after 13 days (100=total damage to plant; 0=no damage to plant), read-out: Foxtail, Giant damage rating; for pest or weed control at 62.5 g/ha: 62.5 g ai/ha, read-out: Foxtail, Giant damage rating (100=total damage to plant; 0=no damage to plant); for pest or weed control at 62.5 g/ha / pest or weed control at 250 g/ha: evaluated after 13 days; for pest or weed control at 250 g/ha: 250 g ai/ha, read-out: damage to plant, Foxtail, Giant (100=total damage to plant; 0=no damage to plant)
Experimental: as §1, with “8 days” for “one day”
as §2

[6] = test system: ivy-leaved morning glory (Ipomoea hederacea); experiment: Test G Post-Emergence Protocol; settings: Ipomoea, post-emergence, 312 h; for pest or weed control at 15.625 g/ha: 15.625 g ai/ha, evaluated after 13 days (100=total damage to plant; 0=no damage to plant), read-out: Morningglory, Ivy-leaved damage rating; for pest or weed control at 62.5 g/ha: 62.5 g ai/ha, read-out: Morningglory, Ivy-leaved damage rating (100=total damage to plant; 0=no damage to plant); for pest or weed control at 62.5 g/ha / pest or weed control at 250 g/ha: evaluated after 13 days; for pest or weed control at 250 g/ha: 250 g ai/ha, read-out: damage to plant, Morningglory, Ivy-leaved (100=total damage to plant; 0=no damage to plant)
Experimental: as §1, with “8 days” for “one day”
as §2

[7] = test system: barnyardgrass (Echinochloa crus-galli); experiment: Test G Post-Emergence Protocol; settings: Echinochloa crus-galli, post-emergence, 312 h; for pest or weed control at 15.625 g/ha: 15.625 g ai/ha, evaluated after 13 days (100=total damage to plant; 0=no damage to plant), read-out: Barnyardgrass damage rating; for pest or weed control at 62.5 g/ha: 62.5 g ai/ha, read-out: Barnyardgrass damage rating (100=total damage to plant; 0=no damage to plant); for pest or weed control at 62.5 g/ha / pest or weed control at 250 g/ha: evaluated after 13 days; for pest or weed control at 250 g/ha: 250 g ai/ha, read-out: damage to plant, Barnyardgrass (100=total damage to plant; 0=no damage to plant)
Experimental: as §1, with “8 days” for “one day”
as §2

[8] = test system: velvetleaf (Abutilon theophrasti); experiment: Test G Post-Emergence Protocol; settings: Abutilon theophrasti, post-emergence, 312 h; for pest or weed control at 15.625 g/ha: 15.625 g ai/ha, evaluated after 13 days (100=total damage to plant; 0=no damage to plant), read-out: Velvetleaf damage rating; for pest or weed control at 62.5 g/ha: 62.5 g ai/ha, read-out: Velvetleaf damage rating (100=total damage to plant; 0=no damage to plant); for pest or weed control at 62.5 g/ha / pest or weed control at 250 g/ha: evaluated after 13 days; for pest or weed control at 250 g/ha: 250 g ai/ha, read-out: damage to plant, Velvetleaf (100=total damage to plant; 0=no damage to plant)
Experimental: as §1, with “8 days” for “one day”
as §2

[9] = test system: redroot pigweed (Amaranthus retroflexus); experiment: Test G Post-Emergence Protocol; settings: Amaranthus retroflexus, post-emergence, 312 h; for pest or weed control at 15.625 g/ha: 15.625 g ai/ha, evaluated after 13 days (100=total damage to plant; 0=no damage to plant), read-out: Pigweed, Redroot damage rating; for pest or weed control at 62.5 g/ha: 62.5 g ai/ha, read-out: Pigweed, Redroot damage rating (100=total damage to plant; 0=no damage to plant); for pest or weed control at 62.5 g/ha / pest or weed control at 250 g/ha: evaluated after 13 days; for pest or weed control at 250 g/ha: 250 g ai/ha, read-out: damage to plant, Pigweed, Redroot (100=total damage to plant; 0=no damage to plant)
Experimental: as §1, with “8 days” for “one day”
as §2

corn (Zea mays) [10] = experiment: Test G Post-Emergence Protocol; settings: Zea mays, post-emergence, 312 h; for plant injury at 15.625 g/ha: 15.625 g ai/ha, evaluated after 13 days (100=total damage to plant; 0=no damage to plant), read-out: Corn damage rating; for plant injury at 62.5 g/ha: 62.5 g ai/ha, read-out: Corn damage rating (100=total damage to plant; 0=no damage to plant); for plant injury at 62.5 g/ha / plant injury at 250 g/ha: evaluated after 13 days; for plant injury at 250 g/ha: 250 g ai/ha, read-out: damage to plant, Corn (100=total damage to plant; 0=no damage to plant)
Experimental: as §1, with “8 days” for “one day”
as §2

With CN1CC(c2ccc(C(F)(F)F)cc2)C(C(=O)Nc2ccccc2S(C)(=O)=O)C1=O (centres unmarked) [Compound 624] the “Plant response rating: Poinsettia, Wild” value ([1]; 31 g ai/ha) was 20, the “Plant response rating: Poinsettia, Wild” value ([1]; 62 g ai/ha) was 20 and the “Plant response rating: Poinsettia, Wild” value ([1]; 125 g ai/ha) was 30. The “Plant response rating: Poinsettia, Wild” value ([1]; 250 g ai/ha) was 40.

In the case of CN1CC(c2cccc(C(F)(F)F)c2)C(C(=O)Nc2ccccc2S(C)(=O)=O)C1=O (centres unmarked) [Compound 637], the “Plant response rating: Poinsettia, Wild” value ([1]; 31 g ai/ha) is reported as 0, the “Plant response rating: Poinsettia, Wild” value ([1]; 62 g ai/ha) is reported as 0 and the “Plant response rating: Poinsettia, Wild” value ([1]; 125 g ai/ha) is reported as 20. The “Plant response rating: Poinsettia, Wild” value ([1]; 250 g ai/ha) was 25.

Cc1ccc([C@H]2CN(C)C(=O)[C@@H]2C(=O)Nc2cccnc2F)cc1 [Compound 1398] showed a pest or weed control at 15.625 g/ha [2] of 90%, a pest or weed control at 62.5 g/ha [2] of 90% and a pest or weed control at 250 g/ha [2] of 90%. The pest or weed control at 15.625 g/ha [3] was 20%, the pest or weed control at 62.5 g/ha [3] was 60% and the pest or weed control at 250 g/ha [3] was 80%. The plant injury at 15.625 g/ha (corn (Zea mays) [4]) was 20%, the plant injury at 62.5 g/ha (corn (Zea mays) [4]) was 80% and the plant injury at 250 g/ha (corn (Zea mays) [4]) was 90%. For the same compound, the pest or weed control at 15.625 g/ha [5] was 80%, the pest or weed control at 62.5 g/ha [5] was 80% and the pest or weed control at 250 g/ha [5] was 80%. For the same compound, the pest or weed control at 15.625 g/ha [6] was 0%, the pest or weed control at 62.5 g/ha [6] was 40% and the pest or weed control at 250 g/ha [6] was 60%. It also gave a pest or weed control at 15.625 g/ha [7] of 80%, a pest or weed control at 62.5 g/ha [7] of 80% and a pest or weed control at 250 g/ha [7] of 80%. It also gave a pest or weed control at 15.625 g/ha [8] of 0%, a pest or weed control at 62.5 g/ha [8] of 40% and a pest or weed control at 250 g/ha [8] of 40%. The pest or weed control at 15.625 g/ha [9] was 0%, the pest or weed control at 62.5 g/ha [9] was 50% and the pest or weed control at 250 g/ha [9] was 60%. For the same compound, the plant injury at 15.625 g/ha (corn (Zea mays) [10]) was 30%, the plant injury at 62.5 g/ha (corn (Zea mays) [10]) was 70% and the plant injury at 250 g/ha (corn (Zea mays) [10]) was 80%.

Work on Cc1ccc([C@H]2CN(C)C(=O)[C@@H]2C(=O)Nc2ccc(F)nc2F)cc1 [Compound 1402] yielded a pest or weed control at 15.625 g/ha [2] of 90%, a pest or weed control at 62.5 g/ha [2] of 90% and a pest or weed control at 250 g/ha [2] of 90%. It also gave a pest or weed control at 15.625 g/ha [3] of 0%, a pest or weed control at 62.5 g/ha [3] of 80% and a pest or weed control at 250 g/ha [3] of 80%. The plant injury at 15.625 g/ha (corn (Zea mays) [4]) was 60%, the plant injury at 62.5 g/ha (corn (Zea mays) [4]) was 80% and the plant injury at 250 g/ha (corn (Zea mays) [4]) was 90%. It also gave a pest or weed control at 15.625 g/ha [5] of 80%, a pest or weed control at 62.5 g/ha [5] of 80% and a pest or weed control at 250 g/ha [5] of 80%. For the same compound, the pest or weed control at 15.625 g/ha [6] was 10%, the pest or weed control at 62.5 g/ha [6] was 40% and the pest or weed control at 250 g/ha [6] was 60%. For the same compound, the pest or weed control at 15.625 g/ha [7] was 80%, the pest or weed control at 62.5 g/ha [7] was 80% and the pest or weed control at 250 g/ha [7] was 80%. The pest or weed control at 15.625 g/ha [8] was 0%, the pest or weed control at 62.5 g/ha [8] was 30% and the pest or weed control at 250 g/ha [8] was 50%. The pest or weed control at 15.625 g/ha [9] was 10%, the pest or weed control at 62.5 g/ha [9] was 60% and the pest or weed control at 250 g/ha [9] was 60%. It also gave a plant injury at 15.625 g/ha (corn (Zea mays) [10]) of 70%, a plant injury at 62.5 g/ha (corn (Zea mays) [10]) of 80% and a plant injury at 250 g/ha (corn (Zea mays) [10]) of 80%.
